Assay results taken from publication PMC8279409, “Novel Mixed NOP/Opioid Receptor Peptide Agonists” (Journal of Medicinal Chemistry, 2021).
Read-outs that look alike come from different tables or passages of the source. Where a SMILES comes first, the peptide text is derived from it. [ ]: non-standard residue; d: D form. Phe(4-NO2) = N[C@@H](Cc1ccc([N+](=O)[O-])cc1)C(=O)O; Bip = N[C@@H](Cc1ccc(-c2ccccc2)cc1)C(=O)O; Dip = N[C@H](C(=O)O)C(c1ccccc1)c1ccccc1; Phe(4-NH2) = Nc1ccc(C[C@H](N)C(=O)O)cc1; 1Nal = N[C@@H](Cc1cccc2ccccc12)C(=O)O; 2Nal = N[C@@H](Cc1ccc2ccccc2c1)C(=O)O; Dmt = Cc1cc(O)cc(C)c1C[C@H](N)C(=O)O; Phg = N[C@H](C(=O)O)c1ccccc1

How the values were obtained:
human NOP receptor = biological target: T1, human NOP receptor (Homo sapiens, UniProt P41146); test: Calcium mobilization, NOP receptor; assay type: cell-based; details: for Emax: percent over the baseline fluorescence, mean ± SEM of at least three experiments in duplicate, SEM; for NOP pEC50 (CL95%) / NOP/mu CR (concentration ratio): Table 2 series; for NOP pEC50 (CL95%): CHO cells coexpressing human NOP and Gαqi5, Fluo-4 AM, 37 °C, mean of at least three experiments in duplicate, CL95% in brackets; for NOP/mu CR (concentration ratio): calcium mobilization, NOP versus mu
T1 construct: expressed in transfected cells; host or cells: CHO cells stably coexpressing the receptor and chimeric Gαqi5
Procedure: CHO cells stably coexpressing the human NOP or kappa or the mu receptor and the C-terminally modified Gαqi5 and CHO cells coexpressing the delta receptor and the GαqG66Di5 protein were generated and cultured as described previously.[45],[46] Cells were maintained in Dulbecco’s modified Eagle’s medium/nutrient mixture F-12 (DEMEM/F-12) supplemented with 10% FBS, 100 U/mL penicillin and 100 μg/mL streptomycin, 100 μg/mL hygromicin B, and 200 μg/mL G418 and cultured at 37 °C in 5% CO2 humidified air. Cells were seeded at a density of 50,000 cells/well into 96-well black, clear-bottom plates. The following day, the cells were incubated with Hanks’ balanced salt solution (HBSS) supplemented with 2.5 mM probenecid, 3 μM of the calcium-sensitive fluorescent dye Fluo-4 AM, and 0.01% pluronic acid for 30 min at 37 °C. After that time, the loading solution was aspirated and 100 μL/well of HBSS supplemented with 20 mM HEPES, 2.5 mM probenecid, and 500 μM brilliant black was added. Serial dilutions were carried out in HBSS/HEPES (20 mM) buffer (containing 0.02% BSA fraction V). After placing both plates (cell culture and master plate) into the fluorometric imaging plate reader FlexStation II (Molecular Devices, Sunnyvale, CA), fluorescence changes were measured. On-line additions were carried out in a volume of 50 μL/well. To facilitate drug diffusion into the wells, the present studies were performed at 37 °C. Maximum change in fluorescence, expressed as percent over the baseline fluorescence, was used to determine agonist response.
The pharmacological terminology adopted in this paper is consistent with IUPHAR recommendations.[59] All data are expressed as the mean ± standard error of the mean (SEM) of at least three experiments performed in duplicate. […] Concentration-response curves to agonists were fitted to the classical four-parameter logistic nonlinear regression model:
Effect = Baseline + (Emax – Baseline)/(1 + 10^(LogEC50 – Log[compound]) × Hillslope). Curve fitting was performed using PRISM 6.0 (GraphPad Software Inc., San Diego).

human mu receptor = biological target: T2, human mu receptor (Homo sapiens, UniProt P35372); test: Calcium mobilization, mu opioid receptor; assay type: cell-based; details: for mu pEC50 (CL95%): Table 2 series, CHO cells coexpressing human mu receptor and Gαqi5, Fluo-4 AM, 37 °C, mean of at least three experiments in duplicate, CL95% in brackets; for pEC50_mu: molecular formula strings CSV, repeats calcium mobilization values of Tables 1-3; for activation at 10 µM: read-out: mu effect at 10 μM (crc incomplete), Table 2 series, mean ± SEM; for activation at 10 µM / Emax: percent over the baseline fluorescence, SEM; for Emax: mean ± SEM of at least three experiments in duplicate
T2 construct: expressed in transfected cells; host or cells: CHO cells stably coexpressing the receptor and chimeric Gαqi5

[1] = read-out: NOP Emax ± S.E.M., Table 2 series
[2] = read-out: mu Emax ± S.E.M., Table 2 series
[3] = read-out: NOP Emax ± S.E.M., Table 3 series
[4] = read-out: mu Emax ± S.E.M., Table 3 series

T1 sequence (P41146 whole entry): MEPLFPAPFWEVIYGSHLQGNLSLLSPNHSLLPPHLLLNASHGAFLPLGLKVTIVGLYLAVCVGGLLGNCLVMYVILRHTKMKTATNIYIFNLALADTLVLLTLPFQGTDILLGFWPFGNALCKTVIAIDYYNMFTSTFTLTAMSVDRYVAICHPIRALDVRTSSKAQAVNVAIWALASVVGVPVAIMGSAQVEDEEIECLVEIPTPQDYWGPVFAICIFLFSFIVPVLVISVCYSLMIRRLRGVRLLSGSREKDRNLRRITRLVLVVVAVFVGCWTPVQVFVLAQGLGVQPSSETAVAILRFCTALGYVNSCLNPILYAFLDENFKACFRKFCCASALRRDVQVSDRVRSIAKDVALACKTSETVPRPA
T2 sequence (P35372 whole entry): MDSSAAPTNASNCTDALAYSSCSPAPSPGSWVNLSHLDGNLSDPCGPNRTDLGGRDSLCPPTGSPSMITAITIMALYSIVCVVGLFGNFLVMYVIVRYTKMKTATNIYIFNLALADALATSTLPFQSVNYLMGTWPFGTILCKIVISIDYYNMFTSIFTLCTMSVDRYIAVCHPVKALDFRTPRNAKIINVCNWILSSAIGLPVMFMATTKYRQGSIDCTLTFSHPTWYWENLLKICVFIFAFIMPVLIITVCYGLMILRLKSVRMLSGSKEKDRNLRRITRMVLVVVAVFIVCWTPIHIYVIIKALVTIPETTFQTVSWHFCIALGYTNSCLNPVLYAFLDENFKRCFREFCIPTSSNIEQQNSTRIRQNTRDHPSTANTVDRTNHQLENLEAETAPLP

Row | SMILES | Emax (human NOP receptor; [1]) | mu pEC50 (CL95%) (human mu receptor) | pEC50_mu (human mu receptor) | activation at 10 µM (human mu receptor) | NOP pEC50 (CL95%) (human NOP receptor) | NOP/mu CR (concentration ratio) (human NOP receptor) | Emax (human mu receptor; [2]) | Emax (human NOP receptor; [3]) | Emax (human mu receptor; [4])
1 | C[C@H](NC(=O)CNC(=O)[C@H](Cc1ccc([N+](=O)[O-])cc1)NC(=O)[C@H](Cc1ccccc1)NC(=O)CNC(=O)CNC(=O)[C@@H](N)Cc1ccc(O)cc1)C(=O)N[C@@H](CCCNC(=N)N)C(=O)N[C@@H](CCCCN)C(=O)N[C@@H](CO)C(=O)N[C@@H](C)C(=O)N[C@@H](CCCNC(=N)N)C(=O)N[C@@H](CCCCN)C(N)=O [Compound 22, [Tyr^1,(pNO2)Phe^5]N/OFQ(1-13)-NH2] (H-YGGF[Phe(4-NO2)]GARKSARK-NH2) | 305 ± 22% | crc incomplete; 10 μM: 192 ± 64 | crc incomplete | 192 ± 64% | – | – | – | – | –
2 | C[C@H](NC(=O)CNC(=O)[C@@H](NC(=O)[C@H](Cc1ccccc1)NC(=O)CNC(=O)CNC(=O)[C@@H](N)Cc1ccc(O)cc1)C(c1ccccc1)c1ccccc1)C(=O)N[C@@H](CCCNC(=N)N)C(=O)N[C@@H](CCCCN)C(=O)N[C@@H](CO)C(=O)N[C@@H](C)C(=O)N[C@@H](CCCNC(=N)N)C(=O)N[C@@H](CCCCN)C(N)=O [Compound 23, [Tyr^1,Dip^5]N/OFQ(1-13)-NH2] (H-YGGF[Dip]GARKSARK-NH2) | 240 ± 26% | 6.78 (6.28–7.27) | – | – | 6.61 (6.13–7.09) | 1.48 | 331 ± 32% | – | –
3 | C[C@H](NC(=O)CNC(=O)[C@H](Cc1ccc(-c2ccccc2)cc1)NC(=O)[C@H](Cc1ccccc1)NC(=O)CNC(=O)CNC(=O)[C@@H](N)Cc1ccc(O)cc1)C(=O)N[C@@H](CCCNC(=N)N)C(=O)N[C@@H](CCCCN)C(=O)N[C@@H](CO)C(=O)N[C@@H](C)C(=O)N[C@@H](CCCNC(=N)N)C(=O)N[C@@H](CCCCN)C(N)=O [Compound 24, [Tyr^1,Bip^5]N/OFQ(1-13)-NH2] (H-YGGF[Bip]GARKSARK-NH2) | 272 ± 29% | crc incomplete; 10 μM: 151 ± 66 | crc incomplete | 151 ± 66% | 6.93 (6.63–7.22) | 0.15 | – | – | –
4 | C[C@H](NC(=O)CNC(=O)[C@H](Cc1cccc2ccccc12)NC(=O)[C@H](Cc1ccccc1)NC(=O)CNC(=O)CNC(=O)[C@@H](N)Cc1ccc(O)cc1)C(=O)N[C@@H](CCCNC(=N)N)C(=O)N[C@@H](CCCCN)C(=O)N[C@@H](CO)C(=O)N[C@@H](C)C(=O)N[C@@H](CCCNC(=N)N)C(=O)N[C@@H](CCCCN)C(N)=O [Compound 25, [Tyr^1,1Nal^5]N/OFQ(1-13)-NH2] (H-YGGF[1Nal]GARKSARK-NH2) | 245 ± 16% | 6.08 (5.67–6.49) | – | – | 7.17 (6.82–7.52) | 0.08 | 319 ± 31% | – | –
5 | C[C@H](NC(=O)CNC(=O)[C@H](Cc1ccc2ccccc2c1)NC(=O)[C@H](Cc1ccccc1)NC(=O)CNC(=O)CNC(=O)[C@@H](N)Cc1ccc(O)cc1)C(=O)N[C@@H](CCCNC(=N)N)C(=O)N[C@@H](CCCCN)C(=O)N[C@@H](CO)C(=O)N[C@@H](C)C(=O)N[C@@H](CCCNC(=N)N)C(=O)N[C@@H](CCCCN)C(N)=O [Compound 26, [Tyr^1,2Nal^5]N/OFQ(1-13)-NH2] (H-YGGF[2Nal]GARKSARK-NH2) | 266 ± 15% | crc incomplete; 10 μM: 244 ± 10 | crc incomplete | 244 ± 10% | 6.82 (6.60–7.04) | 0.19 | – | – | –
6 | C[C@H](NC(=O)CNC(=O)[C@H](Cc1ccc(N)cc1)NC(=O)[C@H](Cc1ccccc1)NC(=O)CNC(=O)CNC(=O)[C@@H](N)Cc1ccc(O)cc1)C(=O)N[C@@H](CCCNC(=N)N)C(=O)N[C@@H](CCCCN)C(=O)N[C@@H](CO)C(=O)N[C@@H](C)C(=O)N[C@@H](CCCNC(=N)N)C(=O)N[C@@H](CCCCN)C(N)=O [Compound 27, [Tyr^1,(pNH2)Phe^5]N/OFQ(1-13)-NH2] (H-YGGF[Phe(4-NH2)]GARKSARK-NH2) | 274 ± 15% | – | – | – | – | – | 329 ± 37% | – | –
7 | Cc1cc(O)cc(C)c1C[C@H](NC(=O)[C@H](Cc1ccccc1)NC(=O)CNC(=O)CNC(=O)[C@@H](N)Cc1ccc(O)cc1)C(=O)NCC(=O)N[C@@H](C)C(=O)N[C@@H](CCCNC(=N)N)C(=O)N[C@@H](CCCCN)C(=O)N[C@@H](CO)C(=O)N[C@@H](C)C(=O)N[C@@H](CCCNC(=N)N)C(=O)N[C@@H](CCCCN)C(N)=O [Compound 28, [Tyr^1,Dmt^5]N/OFQ(1-13)-NH2] (H-YGGF[Dmt]GARKSARK-NH2) | 251 ± 22% | – | – | – | – | – | 301 ± 35% | – | –
8 | Cc1cc(O)cc(C)c1C[C@H](N)C(=O)NCC(=O)NCC(=O)N[C@@H](Cc1ccccc1)C(=O)N[C@H](C(=O)NCC(=O)N[C@@H](C)C(=O)N[C@@H](CCCNC(=N)N)C(=O)N[C@@H](CCCCN)C(=O)N[C@@H](CO)C(=O)N[C@@H](C)C(=O)N[C@@H](CCCNC(=N)N)C(=O)N[C@@H](CCCCN)C(N)=O)[C@@H](C)O [Compound 29, [Dmt^1]N/OFQ(1-13)-NH2, reference compound] | – | – | – | – | – | – | – | 294 ± 22% | 311 ± 20%
9 | Cc1cc(O)cc(C)c1C[C@H](N)C(=O)NCC(=O)NCC(=O)N[C@@H](Cc1ccccc1)C(=O)N[C@@H](Cc1ccc(O)cc1)C(=O)NCC(=O)N[C@@H](C)C(=O)N[C@@H](CCCNC(=N)N)C(=O)N[C@@H](CCCCN)C(=O)N[C@@H](CO)C(=O)N[C@@H](C)C(=O)N[C@@H](CCCNC(=N)N)C(=O)N[C@@H](CCCCN)C(N)=O [Compound 30, [Dmt^1,Tyr^5]N/OFQ(1-13)-NH2] (H-[Dmt]GGFYGARKSARK-NH2) | – | – | – | – | – | – | – | 304 ± 21% | 410 ± 25%
10 | Cc1cc(O)cc(C)c1C[C@H](N)C(=O)NCC(=O)NCC(=O)N[C@@H](Cc1ccccc1)C(=O)N[C@@H](Cc1ccccc1)C(=O)NCC(=O)N[C@@H](C)C(=O)N[C@@H](CCCNC(=N)N)C(=O)N[C@@H](CCCCN)C(=O)N[C@@H](CO)C(=O)N[C@@H](C)C(=O)N[C@@H](CCCNC(=N)N)C(=O)N[C@@H](CCCCN)C(N)=O [Compound 31, [Dmt^1,Phe^5]N/OFQ(1-13)-NH2] (H-[Dmt]GGFFGARKSARK-NH2) | – | – | – | – | – | – | – | 277 ± 28% | 335 ± 22%
11 | Cc1cc(O)cc(C)c1C[C@H](N)C(=O)NCC(=O)NCC(=O)N[C@@H](Cc1ccccc1)C(=O)N[C@H](C(=O)NCC(=O)N[C@@H](C)C(=O)N[C@@H](CCCNC(=N)N)C(=O)N[C@@H](CCCCN)C(=O)N[C@@H](CO)C(=O)N[C@@H](C)C(=O)N[C@@H](CCCNC(=N)N)C(=O)N[C@@H](CCCCN)C(N)=O)c1ccccc1 [Compound 32, [Dmt^1,Phg^5]N/OFQ(1-13)-NH2] (H-[Dmt]GGF[Phg]GARKSARK-NH2) | – | – | – | – | – | – | – | 282 ± 12% | 339 ± 28%
12 | Cc1cc(O)cc(C)c1C[C@H](N)C(=O)NCC(=O)NCC(=O)N[C@@H](Cc1ccccc1)C(=O)N[C@@H](Cc1cccc2ccccc12)C(=O)NCC(=O)N[C@@H](C)C(=O)N[C@@H](CCCNC(=N)N)C(=O)N[C@@H](CCCCN)C(=O)N[C@@H](CO)C(=O)N[C@@H](C)C(=O)N[C@@H](CCCNC(=N)N)C(=O)N[C@@H](CCCCN)C(N)=O [Compound 33, [Dmt^1,1Nal^5]N/OFQ(1-13)-NH2] (H-[Dmt]GGF[1Nal]GARKSARK-NH2) | – | – | – | – | – | – | – | 286 ± 19% | 349 ± 20%
13 | Cc1cc(O)cc(C)c1C[C@H](N)C(=O)NCC(=O)NCC(=O)N[C@@H](Cc1ccccc1)C(=O)N[C@@H](Cc1ccc(N)cc1)C(=O)NCC(=O)N[C@@H](C)C(=O)N[C@@H](CCCNC(=N)N)C(=O)N[C@@H](CCCCN)C(=O)N[C@@H](CO)C(=O)N[C@@H](C)C(=O)N[C@@H](CCCNC(=N)N)C(=O)N[C@@H](CCCCN)C(N)=O [Compound 34, [Dmt^1,(pNH2)Phe^5]N/OFQ(1-13)-NH2] (H-[Dmt]GGF[Phe(4-NH2)]GARKSARK-NH2) | – | – | – | – | – | – | – | 258 ± 20% | 358 ± 15%
